1 molecule from patent US8609695B2, “Methods of treating and/or suppressing insulin resistance” (Endorecherche, Inc., priority 1999, dated 2013) can be followed below.

Each structure is given as a SMILES string.

Assay [1] deals with ovariectomized female rats. Kind of assay: SERM comparison, energy balance and lipid-lipoprotein metabolism (Example 10). The format is in vivo, Rattus norvegicus. As to conditions: OVX rats, 20 days. Put shortly:
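Ovariectomized rats on a high-carbohydrate diet dosed by oral gavage 0.5 mg/rat in 0.4% methylcellulose for 20 days; sham-operated group included. Body weight and food intake every 2 days, DEXA body fat on Day 17. Necropsy on day 21, ~24 h post-dose after 6 h fast: serum lipids, glucose, insulin, leptin, tissue weights.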

The subject of assay [2] is human endometrial adenocarcinoma Ishikawa cells. Kind of assay: Alkaline phosphatase activity in Ishikawa cells (Example 11). The format is cell-based. The note with it: for Stimulation of alkaline phosphatase by tested compounds % of 1 nM E2 stimulation: Ishikawa cells, five days incubation, intrinsic estrogenic activity, hydrochloride. Here is the method:
The human Ishikawa cell line derived from a well differentiated endometrial adenocarcinoma was kindly provided by Dr. Erlio Gurpide, The Mount Sinai Medical Center, New York, N.Y. The Ishikawa cells were routinely maintained in Eagle's Minimum Essential Medium (MEM) containing 5% (vol/vol) FBS and supplemented with 100 U/ml penicillin, 100 μg/ml streptomycin, 0.1 mM Non-essential Amino Acids solution. Cells were plated in Falcon T75 flasks at a density of 1.5×10^6 cells at 37 C.
Twenty four hours before the start of an experiment, the medium of near confluent Ishikawa cells was replaced by fresh estrogen-free basal medium (EFBM) consisting of a 1:1 (v:v) mixture of phenol red-free Ham's F-12 and Dulbecco's Modified Eagle's Medium (DMEM) supplemented with 100 U/mL penicillin, 100 μg/mL Streptomycin, 2 mM glutamine, and 5% FBS treated twice with dextran-coated charcoal to remove endogenous steroids. Cells were then harvested by 0.1% pancreatin (Sigma) and 0.25 mM HEPES, resuspended in EFBM and plated in Falcon 96 well flat-bottomed microtiter plates at a density of 2.2×10^4 cells/well in a volume of 100 μl and allowed to adhere to the surface of the plates for 24 h. Thereafter, medium was replaced with fresh EFBM containing the indicated concentrations of compounds in a final volume of 200 μl. Cells were incubated for five days, with a medium change after 48 h.
At the end of the incubation period, microtiter plates were inverted and growth medium was decanted. The plates were rinsed with 200 μL by well of PBS (0.15M NaCl, 10 mM sodium phosphate, pH 7.4). PBS was then removed from the plates while carefully leaving some residual PBS, and the wash procedure was repeated once. The buffered saline was then decanted, and the inverted plates were blotted gently on a paper towel. Following replacement of the covers, the plates were placed at −80 C for 15 min followed by thawing at room temperature for 10 min. The plates were then placed on ice, and 50 μl of an ice-cold solution containing 5 mM p-nitrophenyl phosphate, 0.24 mM MgCl2, and 1 M diethanolamine (pH 9.8) was added. Plates were then warmed to room temperature, and the yellow color from the production of p-nitrophenyl was allowed to develop (8 min). Plates were monitored at 405 nm in an enzyme-linked immunosorbent assay plate reader (BIO-RAD, model 2550 EIA Reader).
Dose-response curves as well as IC50 values were calculated using a weighted iterative nonlinear squares regression.

Assay [3] deals with human breast cancer MCF-7 cells. Kind of assay: Proliferation of MCF-7 cell line, DNA content (Example 12). The format is cell-based. The source says:
MCF-7 human breast cancer cells were obtained from the American Type Culture Collection # HTB 22 at passage 147 and routinely grown in phenol red-free Dulbecco's Modified Eagle's-Ham's F12 medium, the supplements mentioned above and 5% FBS. The MCF-7 human breast adenocarcinoma cell line was derived from the pleural effusion of a patient. MCF-7 cells were used between passages 148 and 165 and subcultured weekly.
Cells in their late logarithmic growth phase were harvested with 0.1% pancreatin (Sigma) and resuspended in the appropriate medium containing 50 ng bovine insulin/ml and 5% (v/v) FBS treated twice with dextran-coated charcoal to remove endogenous steroids. Cells were plated in 24-well Falcon plastic culture plates (2 cm2/well) at the indicated density and allowed to adhere to the surface of the plates for 72 h. […] Control cells received only the ethanolic vehicle (0.1% EtOH,v/v). Cells were incubated for the specified time intervals with medium changes at 2- or 3-day intervals. Cell number was determined by measurement of DNA content.
Dose-response curves as well IC50 values were calculated using a weighted iterative nonlinear least-squares regression. All results are expressed as means±SEM.

Setting [4] is: high carbohydrate diet, 0.5 mg/rat oral gavage.

On to `CC1=C(c2ccc(O)cc2)[C@H](c2ccc(OCCN3CCCCC3)cc2)Oc2cc(O)ccc21.Cl` [EM-652.HCl, (S)-(+)-7-hydroxy-3-(4′-hydroxyphenyl)-4-methyl-2-(4″-(2′″-piperidino-ethoxy)phenyl)-2H-1-benxopyran hydrochloride], for which, in assay [1] (0.5 mg/rat), the “Serum insulin (in words)” value is on record as “decreased”. In assay [1] (setting [4]), the “Brown adipose tissue Lipoprotein lipase activity” value came to 900 ± 91 μU/g protein, the “Brown adipose tissue weight” value worked out at 0.339 ± 0.038 g, the Cumulative food intake amounted to 324 ± 5 g and the Serum glucose was determined as 15.9 ± 1.4 mmol/L. Further, in assay [1] (setting [4]), the Serum insulin is given as 0.122 ± 0.021 nmol/L, the Serum leptin is listed as 1.10 ± 0.22 ng/mL, the Serum triglycerides is on record as 0.91 ± 0.17 mmol/L and the “Soleus muscle Lipoprotein lipase activity” value is 14.5 ± 4.1 μU/g protein. In addition, in assay [1] (setting [4]), the Soleus muscle weight is given as 0.118 ± 0.018 g, the Total weight came to 252 ± 4 g, the VastusLateralis muscle weight came to 1.00 ± 0.047 g and the “White adipose tissue inguinal Lipoprotein lipase activity” value came out at 684 ± 216 μU/g protein. For the same molecule, in assay [1] (setting [4]), the “White adipose tissue inguinal weight” value was 0.244 ± 0.028 g, the “White adipose tissue retroperitoneal Lipoprotein lipase activity” value is 1917 ± 365 μU/g protein and the “White adipose tissue retroperitoneal weight” value turned out to be 1.32 ± 0.21 g. In assay [2] (Homo sapiens, Ishikawa, 120 h, read-out: Inhibition of 1 nM E2 stimulation of alkaline phosphatase by tested compounds IC50), the IC50 (in general, the point on the concentration scale where inhibition reaches its midpoint) stood at 1.52 ± 0.22 nM. In assay [2], the “Stimulation of alkaline phosphatase by tested compounds % of 1 nM E2 stimulation” value is recorded as “do not show significant estrogenic activity”. Also, the “Stimulation of alkaline phosphatase by tested compounds % of 1 nM E2 stimulation” value in assay [2] (listed as EM-652•HCl) is given as 1.88 ± 0.26 (22) % of 1 nM E2 stimulation. For the same molecule, the IC50 in assay [3] (Homo sapiens, MCF7, read-out: Inhibition of 1 nM E2 stimulation of DNA by tested compounds IC50) worked out at 0.796 nM. Further, the EC50 – broadly, the midpoint of the concentration-response curve – in assay [3] (Homo sapiens, MCF7, MCF-7 cells, text summary of table 12, read-out: EC50 of inhibition (antiestrogen activity)) was 0.8 nM. In assay [3] (MCF-7 cells, absence of E2), the “Stimulation of DNA by tested compounds % of 1 nM E2 stimulation” value is given as “N.S”.
